Measurements published in ChEMBL document CHEMBL1649069, “Discovery of a series of phosphonic acid-containing thiazoles and orally bioavailable diamide prodrugs that lower glucose in diabetic animals through inhibition of fructose-1,6-bisphosphatase” (J Med Chem, 2011).
Active and inactive are the calls of the source. The rule behind the calls is not given here.

Experiments:
[1] = target: T1, Fructose-1,6-bisphosphatase 1 (Homo sapiens, UniProt P09467)
T1 sequence (P09467 whole entry): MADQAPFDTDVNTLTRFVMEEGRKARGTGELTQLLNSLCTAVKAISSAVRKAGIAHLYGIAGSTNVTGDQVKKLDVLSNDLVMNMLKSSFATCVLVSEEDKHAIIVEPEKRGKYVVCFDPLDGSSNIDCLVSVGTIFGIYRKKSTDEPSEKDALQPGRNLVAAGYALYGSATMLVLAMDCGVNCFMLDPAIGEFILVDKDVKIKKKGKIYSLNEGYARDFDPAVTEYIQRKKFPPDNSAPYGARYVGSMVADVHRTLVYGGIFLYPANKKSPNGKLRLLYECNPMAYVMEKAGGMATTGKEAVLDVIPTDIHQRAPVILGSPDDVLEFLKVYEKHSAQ
Description: Inhibition of human liver FBP

Rattus norvegicus [2] = assay: Antidiabetic activity in Sprague-Dawley rat assessed as decrease in glucose Cmax at 10 mg/kg, po; format: functional
Rattus norvegicus [3] = assay: Antidiabetic activity in Sprague-Dawley rat assessed as decrease in glucose Cmax at 10 mg/kg, iv; format: functional
Rattus norvegicus [4] = assay: (§1) Oral bioavailability in Sprague-Dawley rat; format: ADME, organism-based; settings: in vivo
[5] = Plasma protein binding in Sprague-Dawley rat; format: ADME, cell-free; settings: read-out: PPB (converted)
[6] = Volume of distribution in Sprague-Dawley rat; format: ADME, organism-based; settings: in vivo
[7] = Clearance in Sprague-Dawley rat; format: ADME, organism-based; settings: in vivo
[8] = Plasma protein binding in human; format: ADME, cell-free; settings: read-out: PPB (converted)
[9] = Half life in Sprague-Dawley rat; format: ADME, organism-based; settings: in vivo
Rattus norvegicus [10] = assay: Antidiabetic activity in Sprague-Dawley rat assessed as decrease in glucose Cmax at 30 mg/kg
[11] = as §1; format: ADME, organism-based; settings: Sprague-Dawley, in vivo
Rattus norvegicus [12] = assay: Antihyperglycemic activity in Zucker fa/fa rat assessed as reduction in glucose level at 0.4 % w/w administered as food mixture; format: functional, organism-based
[13] = Oral bioavailability in dog; format: ADME, organism-based, Canis lupus familiaris; settings: in vivo
[14] = Oral bioavailability in rat; format: ADME, organism-based; settings: in vivo

## CSc1nc(-c2ccc(P(=O)(O)O)o2)c(CC(C)C)s1
[1]
  IC50: 890 nM

## CCOC(=O)OC(C)OP(=O)(OC(C)OC(=O)OCC)c1ccc(-c2nc(N)sc2CC(C)C)o1 (stereo not drawn)
Rattus norvegicus [2]
  inhibition in vivo at 10 mg/kg: 12%

## Cc1nc(-c2ccc(P(=O)(O)O)o2)c(CC(C)C)s1
Rattus norvegicus [3]
  inhibition in vivo at 10 mg/kg: 55%

## CC(C)Sc1sc(N)nc1-c1ccc(P(=O)(O)O)o1
Rattus norvegicus [3]
  inhibition in vivo at 10 mg/kg: 48%
[1]
  IC50: 24 nM

## Nc1nc(-c2ccc(P(=O)(O)O)o2)c(C(=O)OCc2ccccc2)s1
Rattus norvegicus [3]
  inhibition in vivo at 10 mg/kg: 42%

## Nc1nc(-c2ccc(P(=O)(O)O)o2)c(-c2cccs2)s1
Rattus norvegicus [3]
  inhibition in vivo at 10 mg/kg: 24%

## COc1cccc(-c2sc(N)nc2-c2ccc(P(=O)(O)O)o2)c1
Rattus norvegicus [3]
  inhibition in vivo at 10 mg/kg: 0%
[1]
  IC50: 21 nM

## CSc1ccc(-c2sc(N)nc2-c2ccc(P(=O)(O)O)o2)cc1
Rattus norvegicus [3]
  inhibition in vivo at 10 mg/kg: 72%
[1]
  IC50: 21 nM

## Nc1nc(-c2ccc(P(=O)(O)O)o2)c(-c2ccc(-c3ccccc3)cc2)s1
Rattus norvegicus [3]
  inhibition in vivo at 10 mg/kg: 36%

## CS(=O)(=O)c1ccc(-c2sc(N)nc2-c2ccc(P(=O)(O)O)o2)cc1
Rattus norvegicus [3]
  inhibition in vivo at 10 mg/kg: 78%
[1]
  IC50: 41 nM

## CC(C)(C)c1ccc(-c2sc(N)nc2-c2ccc(P(=O)(O)O)o2)cc1
Rattus norvegicus [3]
  inhibition in vivo at 10 mg/kg: 6%

## CCCc1sc(N)nc1-c1cccc(P(=O)(O)O)c1
Rattus norvegicus [3]
  inhibition in vivo at 10 mg/kg: 0%
[1]
  IC50: 250 nM

## Nc1nc(-c2cccc(P(=O)(O)O)c2)cs1
[1]
  IC50: 1300 nM

## CCOC(=O)c1sc(N)nc1-c1ccc(P(=O)(O)O)o1
Rattus norvegicus [3]
  inhibition in vivo at 10 mg/kg: 76%

## Nc1nc(-c2ccc(P(=O)(O)O)o2)c(N2CCOCC2)s1
Rattus norvegicus [3]
  inhibition in vivo at 10 mg/kg: 75%
[1]
  IC50: 16 nM

## Nc1nc(-c2ccc(P(=O)(O)O)o2)c(Cl)s1
Rattus norvegicus [3]
  inhibition in vivo at 10 mg/kg: 17%

## CCSc1sc(N)nc1-c1ccc(P(=O)(O)O)o1
[1]
  IC50: 33 nM

## Nc1nc(-c2ccc(P(=O)(O)O)o2)c(Br)s1
Rattus norvegicus [3]
  inhibition in vivo at 10 mg/kg: 20%

## CCCSc1sc(N)nc1-c1ccc(P(=O)(O)O)o1
Rattus norvegicus [3]
  inhibition in vivo at 10 mg/kg: 82%

## Nc1nc(-n2ccc(P(=O)(O)O)c2)c(-c2ccccc2)s1
[1]
  IC50: > 10000 nM

## CC(C)Cc1sc(N)nc1-c1ccc(P(=O)(O)O)o1 [MB-05032]
Rattus norvegicus [4]
  F: 4%
[5]
  fraction unbound: 0.1
[6]
  Vd: 0.18 L/kg
[7]
  clearance: 4 mL/min/kg
[8]
  fraction unbound: 0.07
Rattus norvegicus [3]
  inhibition in vivo at 10 mg/kg: 65%
[9]
  half-life: 39 min

## CC(C)Cc1sc(Br)nc1-c1ccc(P(=O)(O)O)o1
Rattus norvegicus [3]
  inhibition in vivo at 10 mg/kg: 3%

## CCOC(=O)C(C)(C)NP(=O)(NC(C)(C)C(=O)OCC)c1ccc(-c2nc(N)sc2CC(C)C)o1
Rattus norvegicus [2]
  inhibition in vivo at 10 mg/kg: 45%

## CCOC(=O)OCOP(=O)(OCOC(=O)OCC)c1ccc(-c2nc(N)sc2CC(C)C)o1
Rattus norvegicus [10]
  inhibition in vivo at 30 mg/kg: 40%

## Nc1nc(-c2ccc(P(=O)(O)O)o2)c(C2CCC2)s1
[1]
  IC50: 19 nM

## CCCc1sc(N)nc1C(=O)OCP(=O)(O)O
Rattus norvegicus [3]
  inhibition in vivo at 10 mg/kg: 63%
[1]
  IC50: 50 nM

## CC(C)(C)Sc1sc(N)nc1-c1ccc(P(=O)(O)O)o1
[1]
  IC50: 24 nM

## Nc1nc(-c2ccc(P(=O)(O)O)o2)c(-c2ccccc2)s1
Rattus norvegicus [3]
  inhibition in vivo at 10 mg/kg: 76%
[1]
  IC50: 14 nM

## COc1ccccc1-c1sc(N)nc1-c1ccc(P(=O)(O)O)o1
Rattus norvegicus [3]
  inhibition in vivo at 10 mg/kg: 66%

## Nc1nc(-c2ccc(P(=O)(O)O)o2)c(-c2ccc3ccccc3c2)s1
Rattus norvegicus [3]
  inhibition in vivo at 10 mg/kg: 20%
[1]
  IC50: 12 nM

## CC(C)Cn1c(-c2ccc(P(=O)(O)O)o2)nc2c(N)ncnc21
[1]
  IC50: 800 nM

## CC(C)Cc1sc(CO)nc1-c1ccc(P(=O)(O)O)o1
Rattus norvegicus [3]
  inhibition in vivo at 10 mg/kg: 8%
[1]
  IC50: 220 nM

## CC(C)Cc1sc(C(N)=O)nc1-c1ccc(P(=O)(O)O)o1
[1]
  IC50: 2750 nM

## Nc1nc(-c2ccc(P(=O)(O)O)o2)c(I)s1
Rattus norvegicus [3]
  inhibition in vivo at 10 mg/kg: -2%
[1]
  IC50: 100 nM

## Nc1nc(-c2ccc(P(=O)(O)O)o2)c(-c2ccco2)s1
Rattus norvegicus [3]
  inhibition in vivo at 10 mg/kg: 21%

## CC(C)Cc1sc(C#N)nc1-c1ccc(P(=O)(O)O)o1
[1]
  IC50: 2000 nM

## C=Cc1nc(-c2ccc(P(=O)(O)O)o2)c(CC(C)C)s1
[1]
  IC50: 1200 nM

## CC(C)Cc1sc(-c2cccnc2)nc1-c1ccc(P(=O)(O)O)o1
[1]
  IC50: 5000 nM

## Nc1nc(-c2ccc(P(=O)(O)O)o2)c(-c2ccc(Cl)cc2)s1
Rattus norvegicus [3]
  inhibition in vivo at 10 mg/kg: 40%
[1]
  IC50: 13 nM

## COC(=O)c1ccc(-c2sc(N)nc2-c2ccc(P(=O)(O)O)o2)cc1
Rattus norvegicus [3]
  inhibition in vivo at 10 mg/kg: 78%
[1]
  IC50: 14 nM

## Cc1sc(N)nc1-c1ccc(P(=O)(O)O)o1
[1]
  IC50: 120 nM

## CCc1cc(F)c(N)c2nc(-c3ccc(P(=O)(O)O)o3)n(CC(C)C)c12
[11]
  bioavailability: 2%
[5]
  fraction unbound: 0.01
[6]
  Vd: 0.25 L/kg
[7]
  clearance: 4.33 mL/min/kg
[8]
  fraction unbound: 0.001
[9]
  half-life: 45 min

## CCOC(=O)[C@H](C)NP(=O)(N[C@@H](C)C(=O)OCC)c1ccc(-c2nc(N)sc2CC(C)C)o1
Rattus norvegicus [2]
  inhibition in vivo at 10 mg/kg: 59%
Rattus norvegicus [12]
  inhibition: Active

## Nc1nc(-c2ccc(P(=O)(O)O)o2)c(CC2CC2)s1
[1]
  IC50: 20 nM

## COc1ccc(-c2sc(N)nc2-c2ccc(P(=O)(O)O)o2)cc1
Rattus norvegicus [3]
  inhibition in vivo at 10 mg/kg: 63%
[1]
  IC50: 22 nM

## CC(=O)c1ccc(-c2sc(N)nc2-c2ccc(P(=O)(O)O)o2)cc1
Rattus norvegicus [3]
  inhibition in vivo at 10 mg/kg: 43%
[1]
  IC50: 32 nM

## Nc1nc(-c2ccc(P(=O)(O)O)o2)c(Sc2ccccc2)s1
[1]
  IC50: 300 nM

## CC(C)Cc1sc(Cl)nc1-c1ccc(P(=O)(O)O)o1
[1]
  IC50: 180 nM

## CC(C)Cc1sc(N)nc1-c1ccc(P2(=O)OCC[C@H](c3cccc(Cl)c3)O2)o1 (stereo partly drawn)
Rattus norvegicus [10]
  inhibition in vivo at 30 mg/kg: 53%

## CCCc1sc(N)nc1-c1ccc(P(=O)(O)O)s1
[1]
  IC50: > 10000 nM

## CCOC(=O)[C@H](C)NP(=O)(Oc1ccccc1)c1ccc(-c2nc(N)sc2CC(C)C)o1 (stereo partly drawn)
Rattus norvegicus [10]
  inhibition in vivo at 30 mg/kg: 46%

## Nc1nc(-c2ccc(F)c(P(=O)(O)O)c2)c(-c2ccccc2)s1
Rattus norvegicus [3]
  inhibition in vivo at 10 mg/kg: 0%

## Nc1nc(-c2ccc(P(=O)(O)O)o2)c(-c2ccc(F)cc2)s1
Rattus norvegicus [3]
  inhibition in vivo at 10 mg/kg: 60%

## CCOC(=O)[C@H](C)NP(=O)(N[C@@H](C)C(=O)OCC)c1ccc(-c2nc3c(N)c(F)cc(CC)c3n2CC(C)C)o1
[11]
  bioavailability: 5%
[13]
  bioavailability: > 10%
[14]
  bioavailability: > 10%

## CCOC(=O)CNP(=O)(Oc1ccccc1)c1ccc(-c2nc(N)sc2CC(C)C)o1 (stereo not drawn)
Rattus norvegicus [2]
  inhibition in vivo at 10 mg/kg: 51%

## Nc1nc(-c2ccc(P(=O)(O)O)o2)c(Cc2ccccc2)s1
[1]
  IC50: 150 nM

## Nc1nc(C(=O)NCP(=O)(O)O)c(-c2cccs2)s1
[1]
  IC50: 950 nM

## CCc1nc(-c2ccc(P(=O)(O)O)o2)c(CC(C)C)s1
[1]
  IC50: 400 nM

## Cc1oc(-c2nc(N)sc2-c2ccccc2)nc1P(=O)(O)O
[1]
  IC50: 10000 nM
